Results taken from the NIST ThermoML archive (doi:10.1016/j.tca.2013.10.017).
Numbers after ± are expanded uncertainties.

Experiment: xn = mol fraction of the nth substance listed
Details: for surface tension liquid-gas: Ring tensiometer; for mass density: 101 kPa, Liquid, Vibrating tube method

C[P+](c1ccccc1)(c1ccccc1)c1ccccc1.[Br-] [methyltriphenylphosphonium bromide] + OCC(O)CO
x1 = 0.25
Details | surface tension liquid-gas [mN/m]
298.15 K | 59.35 ± 1
303.15 K | 58.81 ± 1
308.15 K | 58.2 ± 1
313.15 K | 57.68 ± 1
318.15 K | 57.06 ± 1
323.15 K | 56.45 ± 0.99
328.15 K | 55.95 ± 0.98

C[N+](C)(C)CCO.[Cl-] [choline chloride] + O=C[C@H](O)[C@@H](O)[C@H](O)[C@H](O)CO
x1 = 0.67
Details | surface tension liquid-gas [mN/m]
298.15 K | 71.71 ± 1.3
308.15 K | 71.11 ± 1.3
318.15 K | 70.42 ± 1.3
328.15 K | 69.95 ± 1.3
338.15 K | 69.44 ± 1.3
348.15 K | 68.91 ± 1.3
358.15 K | 68.61 ± 1.3

O=C(CO)[C@@H](O)[C@H](O)[C@H](O)CO [D-fructose] + C[N+](C)(C)CCO.[Cl-]
x2 = 0.67
Details | surface tension liquid-gas [mN/m]
298.15 K | 74.01 ± 1.4
308.15 K | 71.98 ± 1.4
318.15 K | 70.02 ± 1.4
328.15 K | 68.03 ± 1.3
338.15 K | 65.98 ± 1.3
348.15 K | 64.02 ± 1.2
358.15 K | 62.05 ± 1.2

C[N+](C)(C)CCO.[Cl-] [choline chloride] + OCCO
x1 = 0.33
Details | mass density [kg/m3] | surface tension liquid-gas [mN/m]
298.15 K | 1118 ± 1 | 48.91 ± 0.9
303.15 K | 1116 ± 1 | 48.43 ± 0.89
308.15 K | 1112 ± 1 | 47.97 ± 0.88
313.15 K | 1110 ± 1 | 47.5 ± 0.87
318.15 K | 1106 ± 1 | 47.03 ± 0.86
323.15 K | 1104 ± 1 | 46.67 ± 0.86
328.15 K | 1101 ± 1 | 46.11 ± 0.85

CCN(CC)CCO.Cl [2-(diethylamino)ethanol hydrochloride] + OCCO
x1 = 0.25
Details | mass density [kg/m3] | surface tension liquid-gas [mN/m]
298.15 K | 1100 ± 1 | 51.29 ± 0.91
303.15 K | 1097 ± 1 | 50.74 ± 0.9
308.15 K | 1093 ± 1 | 50.17 ± 0.89
313.15 K | 1090 ± 1 | 49.63 ± 0.88
318.15 K | 1087 ± 1 | 49.14 ± 0.87
323.15 K | 1084 ± 1 | 48.67 ± 0.87
328.15 K | 1081 ± 1 | 48.12 ± 0.86

C[P+](c1ccccc1)(c1ccccc1)c1ccccc1.[Br-] [methyltriphenylphosphonium bromide] + OCCO
x1 = 0.2
Details | mass density [kg/m3] | surface tension liquid-gas [mN/m]
298.15 K | 1289 ± 1 | 47.51 ± 0.85
303.15 K | 1286 ± 1 | 47.06 ± 0.84
308.15 K | 1282 ± 1 | 46.57 ± 0.83
313.15 K | 1278 ± 1 | 46.12 ± 0.82
318.15 K | 1275 ± 1 | 45.59 ± 0.82
323.15 K | 1271 ± 1 | 45.12 ± 0.81
328.15 K | 1267 ± 1 | 44.64 ± 0.8

CCN(CC)CCO.Cl [2-(diethylamino)ethanol hydrochloride] + OCC(O)CO
x1 = 0.2
Details | mass density [kg/m3] | surface tension liquid-gas [mN/m]
298.15 K | 1205 ± 1 | 58.94 ± 1
303.15 K | 1202 ± 1 | 58.33 ± 1
308.15 K | 1199 ± 1 | 57.63 ± 1
313.15 K | 1196 ± 1 | 56.99 ± 1
318.15 K | 1193 ± 1 | 56.39 ± 0.99
323.15 K | 1188 ± 1 | 55.73 ± 0.98
328.15 K | 1187 ± 1 | 55.16 ± 0.97

C[N+](C)(C)CCO.[Cl-] [choline chloride] + OCC(O)CO
x1 = 0.33
Details | surface tension liquid-gas [mN/m]
298.15 K | 57.24 ± 1
303.15 K | 56.85 ± 1
308.15 K | 56.43 ± 1
313.15 K | 55.93 ± 1
318.15 K | 55.45 ± 1
323.15 K | 55.03 ± 1
328.15 K | 54.55 ± 0.99
